In the supplement of paper PMC10307832:

Key:
Experiment in all cases: relative viability (nuclei count vs DMSO), 5 days (fraction); higher = more cells survive
[1] = compound: Cn1cc(-c2cnn3c(N)c(Br)c([C@@H]4CCCNC4)nc23)cn1 + COc1cc2c(Oc3ccc(NC(=O)C4(C(=O)Nc5ccc(F)cc5)CC4)cc3F)ccnc2cc1OCCCN1CCOCC1 [Foretinib] (partner 0.25 µM)
Summary of the method: (§1)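 After 5 days of treatment, lung cancer cells in 1536-well plates were fixed and stained in a single step (final 0.05% Triton X-100, 1% formaldehyde, 1 ug/ml Hoechst) and their nuclei counted on 4× images. Treatment had been applied by pin tool the day after seeding as one drug alone or as a fixed anchor-drug dose with five library-drug doses (not always all listed) in √10 steps. Relative viability is the nuclei count of treated wells divided by that of vehicle wells, and values are medians of duplicate plates.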

[2] = compound: Cn1cc(-c2cnn3c(N)c(Br)c([C@@H]4CCCNC4)nc23)cn1 + COc1cccc2cc(-c3nc([C@H]4CC[C@H](C(=O)O)CC4)n4ncnc(N)c34)[nH]c12 [OSI-027] (partner 0.5 µM)
Summary of the method: as §1

[3] = compound: Cn1cc(-c2cnn3c(N)c(Br)c([C@@H]4CCCNC4)nc23)cn1 + NC(=O)Nc1cc(-c2cccc(F)c2)sc1C(=O)N[C@H]1CCCNC1 [AZD7762] (partner 0.2 µM)
Summary of the method: as §1

[4] = compound: Cn1cc(-c2cnn3c(N)c(Br)c([C@@H]4CCCNC4)nc23)cn1 + Nc1nc2[nH]cc(CCc3ccc(C(=O)N[C@@H](CCC(=O)O)C(=O)O)cc3)c2c(=O)[nH]1 [Pemetrexed] (partner 0.2 µM)
Summary of the method: as §1

| Cell Line | relative viability ([1]; first compound 0.05 µM) | relative viability ([1]; first compound 0.1581 µM) | relative viability ([1]; first compound 0.5 µM) | relative viability ([1]; first compound 1.581 µM) | relative viability ([1]; first compound 5 µM) | relative viability ([2]; first compound 0.05 µM) | relative viability ([2]; first compound 0.1581 µM) | relative viability ([2]; first compound 0.5 µM) | relative viability ([2]; first compound 1.581 µM) | relative viability ([2]; first compound 5 µM) | relative viability ([3]; first compound 0.05 µM) | relative viability ([3]; first compound 0.1581 µM) | relative viability ([3]; first compound 0.5 µM) | relative viability ([3]; first compound 1.581 µM) | relative viability ([3]; first compound 5 µM) | relative viability ([4]; first compound 0.05 µM) | relative viability ([4]; first compound 0.1581 µM) | relative viability ([4]; first compound 0.5 µM) | relative viability ([4]; first compound 1.581 µM) | relative viability ([4]; first compound 5 µM) |
| --- | --- | --- | --- | --- | --- | --- | --- | --- | --- | --- | --- | --- | --- | --- | --- | --- | --- | --- | --- | --- |
| NCI-H2405 | 0.978 | 0.952 | 1.05 | 0.989 | 0.919 | 0.607 | 0.594 | 0.652 | 0.623 | 0.54 | 0.682 | 0.75 | 0.659 | 0.476 | 0.501 | 0.968 | 1.05 | 1.05 | 0.991 | 0.709 |
| HCC-15 | 1.09 | 1.09 | 1.05 | 0.941 | 1 | 0.781 | 0.739 | 0.682 | 0.566 | 0.533 | 1.18 | 1.29 | 1.3 | 1.31 | 1.36 | 0.206 | 0.232 | 0.227 | 0.226 | 0.207 |
| PC-3 [JPC-3] | 1.02 | 1.2 | 0.997 | 1.03 | 1.06 | 0.717 | 0.918 | 0.804 | 0.702 | 0.847 | 0.774 | 0.766 | – | 0.616 | 0.637 | 0.698 | 1.03 | – | 1.09 | 0.82 |
| NCI-H1944 | 0.895 | 0.953 | 0.834 | 0.799 | 0.689 | 0.427 | 0.454 | 0.39 | 0.349 | 0.278 | 0.608 | 0.491 | 0.466 | 0.423 | 0.341 | 0.688 | 0.511 | 0.541 | 0.337 | 0.152 |
| HARA | 1.07 | 1.05 | 0.706 | 0.798 | 0.207 | 0.469 | 0.606 | 0.685 | 0.408 | 0.149 | 0.401 | 0.34 | 0.292 | 0.26 | 0.199 | 0.228 | 0.213 | 0.223 | 0.141 | 0.141 |
| NCI-H2126 | 1.2 | 1.3 | 1.11 | 1.02 | 1.53 | 0.715 | 0.744 | 0.74 | 0.673 | 0.672 | 1.05 | 1.03 | 0.997 | 0.993 | 0.986 | 0.662 | 0.756 | 0.753 | 0.566 | 0.454 |
| LXF-289 | 0.996 | 1.02 | 1 | 0.94 | 1.03 | 0.853 | 0.896 | 0.82 | 0.82 | 0.766 | 1.09 | 1.16 | 1.09 | 0.981 | 1.05 | 0.985 | 0.953 | 0.823 | 0.779 | 0.645 |
| NCI-H460 | 0.957 | 1.08 | 1.03 | 0.914 | 0.666 | 0.725 | 0.765 | 0.515 | 0.203 | 0.0935 | 0.496 | 0.579 | 0.603 | 0.757 | 0.519 | 0.0569 | 0.0582 | 0.0504 | 0.0664 | 0.0552 |
| NCI-H1395 | 0.99 | 0.94 | 0.914 | 0.589 | 0.455 | 0.606 | 0.574 | 0.631 | 0.487 | 0.338 | 0.397 | 0.393 | 0.372 | 0.372 | 0.351 | 0.695 | 0.445 | 0.535 | 0.578 | 0.446 |
| NCI-H2170 | 1.02 | 0.934 | 0.963 | 1.02 | 1.1 | 0.759 | 0.801 | 0.687 | 0.649 | 0.653 | 0.923 | 0.919 | 0.753 | 0.822 | 0.973 | 0.268 | 0.258 | 0.26 | 0.256 | 0.223 |
